# Measured values: patent US20240182453A1, “NOVEL SUBSTITUTED PYRAZINE-CARBOXAMIDE DERIVATIVES” (Boehringer Ingelheim International GmbH, priority 2022, published 2024)
# Target: human metabotropic Glutamate 4 receptor (mGluR4) (Homo sapiens (Human), UniProt Q14833)
# Test: Assay A: in vitro testing of mGluR4 potency (glutamate-induced cAMP lowering, HTRF cAMP)
# Type: cell-based
# Conditions: HEK293 cells overexpressing human mGluR4; 10 uM L-glutamic acid, 1 uM forskolin; compounds of the present invention
# Description: A. In Vitro Testing of mGluR4 Potency
# The in vitro activity of the compounds according to the invention may be investigated as follows:
# The HEK293 cell overexpressing the human metabotropic Glutamate 4 receptor are thawed at 37° C. and immediately diluted with cell culture medium. After centrifugation, the cell pellet is re-suspended in medium and then distributed from a stirred spinner flask into the wells of the assay plate. The plates are incubated for one hour at room temperature before they are incubated for 24 hours at 37° C./5% CO2. After washing the cells in the plate three times with 80 uL HBSS/HEPES buffer (10 uL buffer remained in the wells after washing), 5 uL per well of compounds diluted in HBSS/HEPES buffer containing 0.2% BSA (final concentration: 0.1%) and 1 mM IBMX (final concentration: 0.5 mM) are added to the wells of the assay plate. Thereafter 5 uL per well of L-Glutamic acid (final concentration: 10 uM), forskolin (final concentration: 1 uM) and 1 mM IBMX (final concentration: 0.5 mM) dissolved in HBSS/HEPES buffer containing 0.2% BSA (final concentration: 0.1%) are added to the assay plate (final DMSO concentration: 1%). Several wells of the assay plate are used either for the positive and the negative controls or for the cAMP standard curve. The assay plate is incubated for 30 minutes at room temperature. Then 5 ul per well of Anti-cAMP-Antibody-d2 solution and 5 ul per well of cAMP-Europium Cryptate dilution are added to all wells of the plate and the plate is incubated another 60 minutes light protected at room temperature. The emission at 615 nm and 665 nm (Excitation wavelength: 320 nm) are measured on the EnVision™ reader (Perkin Elmer). The ratio between the emission at 665 nm and 615 is calculated by the reader. The whole assay is performed in the dark or under green light.
# The cAMP standard is prepared by diluting the cAMP stock solution with HBSS/Hepes buffer: 5 μl/well of the cAMP dilutions (in HBSS/Hepes buffer containing 1 mM IBMX and 0.2% BSA—final concentration: 0.5 mM IBMX and 0.1% BSA) are added to 10 ul/well HBSS/Hepes buffer plus 5 ul/well 4% DMSO in HBSS/Hepes containing 0.2% BSA (final DMSO concentration: 1%—like in the wells containing compounds) in the wells of the assay plate. The final cAMP concentrations in the assay plate are: 0, 0.17, 0.69, 2.78, 11.1, 44.5, 178, and 712 nM (two wells/cAMP concentration).
# Each assay microtiter plate contained also wells with vehicle controls instead of compound as controls for L-Glutamic acid induced signal (negative control; 100% CTL; 10 uM L-Glutamic acid+1 uM forskolin+0.5 mM IBMX+1% DMSO) and wells with vehicle controls without L-Glutamic acid as controls for non-specific changes in signal (positive control; 0% CTL; 0 uM L-Glutamic acid+1 uM forskolin+0.5 mM IBMX+1% DMSO).
# The analysis of the data is performed by the calculation the ratio between the emission at 665 nm and the emission at 615 nm (Em665/Em615 ratio). Thereafter the signals of the compounds are normalized using the positive and negative controls by the following formula:
# PoC=100×((Signal Sample−Positive Control)/(Negative Control−Positive Control))
# Chain of human metabotropic Glutamate 4 receptor (mGluR4) (Q14833 33-912): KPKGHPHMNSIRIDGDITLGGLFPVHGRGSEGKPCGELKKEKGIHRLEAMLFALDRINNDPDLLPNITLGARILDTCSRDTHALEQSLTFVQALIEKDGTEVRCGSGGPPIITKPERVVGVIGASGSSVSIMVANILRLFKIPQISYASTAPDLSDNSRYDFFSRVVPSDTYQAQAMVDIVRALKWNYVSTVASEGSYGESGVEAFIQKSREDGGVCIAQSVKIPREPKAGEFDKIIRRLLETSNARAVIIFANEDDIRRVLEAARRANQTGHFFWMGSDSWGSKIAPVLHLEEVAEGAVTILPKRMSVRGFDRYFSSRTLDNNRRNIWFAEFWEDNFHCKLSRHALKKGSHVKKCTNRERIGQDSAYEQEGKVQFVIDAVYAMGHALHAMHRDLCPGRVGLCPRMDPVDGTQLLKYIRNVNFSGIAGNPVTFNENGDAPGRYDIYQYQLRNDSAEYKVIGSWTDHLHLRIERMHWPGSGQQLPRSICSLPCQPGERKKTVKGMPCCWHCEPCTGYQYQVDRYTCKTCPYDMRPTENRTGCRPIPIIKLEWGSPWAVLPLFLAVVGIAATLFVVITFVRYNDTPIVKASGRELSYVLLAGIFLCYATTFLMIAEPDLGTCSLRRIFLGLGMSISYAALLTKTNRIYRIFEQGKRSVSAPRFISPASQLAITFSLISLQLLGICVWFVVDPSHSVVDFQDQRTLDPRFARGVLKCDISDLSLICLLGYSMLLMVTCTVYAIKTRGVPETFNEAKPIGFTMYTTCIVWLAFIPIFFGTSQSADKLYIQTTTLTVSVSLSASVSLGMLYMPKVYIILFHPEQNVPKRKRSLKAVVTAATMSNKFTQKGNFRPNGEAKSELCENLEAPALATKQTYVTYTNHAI
row,Compound,IC50 [nM]
1,"CCn1c(C(NC(=O)c2cnc(C)cn2)C2CCOC2)nc2cc(Cl)ccc21 (single isomer, unassigned) [Example 162, N-[(5-chloro-1-ethyl-1H-1,3-benzodiazol-2-yl)(oxolan-3-yl)methyl]-5-methylpyrazine-2-carboxamide]",30
2,"CCn1c(C(NC(=O)c2cnc(C)cn2)C2CCOC2)nc2ccc(Cl)cc21 (single isomer, unassigned) [Example 163, N-[(6-chloro-1-ethyl-1H-1,3-benzodiazol-2-yl)(oxolan-3-yl)methyl]-5-methylpyrazine-2-carboxamide]",27
3,"CCn1c(C(NC(=O)c2cnc(C)cn2)C2CCOC2)nc2ccc(Cl)cc21 (single isomer, unassigned) [Example 164, N-[(6-chloro-1-ethyl-1H-1,3-benzodiazol-2-yl)(oxolan-3-yl)methyl]-5-methylpyrazine-2-carboxamide]",35
4,"COCCn1c([C@@H](NC(=O)c2cnc(C)cn2)[C@@H](C)OC)nc2cc(OC(F)(F)F)ccc21 [Example 2, N-[(1R,2R)-2-methoxy-1-[1-(2-methoxyethyl)-5-(trifluoromethoxy)-1H-1,3-benzodiazol-2-yl]propyl]-5-methylpyrazine-2-carboxamide]",2
5,"COCCn1c([C@@H](NC(=O)c2cnc(C(F)F)cn2)C2CC2)nc2cc(Cl)ccc21 [Example 11, N-[(S)-[5-chloro-1-(2-methoxyethyl)-1H-1,3-benzodiazol-2-yl](cyclopropyl)methyl]-5-(difluoromethyl)pyrazine-2-carboxamide]",3
6,"COCCn1c([C@@H](NC(=O)c2cnc(C)cn2)C2CC2)nc2cc(F)c(F)cc21 [Example 16, N-[(S)-cyclopropyl[5,6-difluoro-1-(2-methoxyethyl)-1H-1,3-benzodiazol-2-yl]methyl]-5-methylpyrazine-2-carboxamide]",5
7,"CCn1c([C@@H](NC(=O)c2cnc(C)cn2)C(C)C)nc2cc(F)ccc21 [Example 17, N-[(1S)-1-(1-ethyl-5-fluoro-1H-1,3-benzodiazol-2-yl)-2-methylpropyl]-5-methylpyrazine-2-carboxamide]",4
8,"COCCn1c([C@@H](NC(=O)c2cnc(C)cn2)C2CC2)nc2c(C)c(C#N)ccc21 [Example 18, N-[(S)-[5-cyano-1-(2-methoxyethyl)-4-methyl-1H-1,3-benzodiazol-2-yl](cyclopropyl)methyl]-5-methylpyrazine-2-carboxamide]",7
9,"COCCn1c(C(NC(=O)c2cnc(C)cn2)C2CCCO2)nc2cc(C(F)(F)F)ccc21 (stereo not drawn) [Example 19-2, N-{[1-(2-methoxyethyl)-5-(trifluoromethyl)-1H-1,3-benzodiazol-2-yl](oxolan-2-yl)methyl}-5-methylpyrazine-2-carboxamide]",62
10,COCCn1c([C@@H](NC(=O)c2cnc(C)cn2)C2CC2)nc2cc(Cl)c(F)cc21 [Example 21],3
11,"CO[C@H](C)[C@H](NC(=O)c1cnc(C)cn1)c1nc2cc(C(F)(F)F)ccc2n1C [Example 22, N-[(1R,2R)-2-methoxy-1-[1-methyl-5-(trifluoromethyl)-1H-1,3-benzodiazol-2-yl]propyl]-5-methylpyrazine-2-carboxamide]",6
12,"COCCn1c([C@@H](NC(=O)c2cnc(C(F)F)cn2)[C@@H]2CCOC2)nc2cc(OC(F)(F)F)ccc21 [Example 23, 5-(difluoromethyl)-N-[(S)-[1-(2-methoxyethyl)-5-(trifluoromethoxy)-1H-1,3-benzodiazol-2-yl][(3S)-oxolan-3-yl]methyl]pyrazine-2-carboxamide]",4
13,"CO[C@H](C)[C@H](NC(=O)c1cnc(C)cn1)c1nc2cc(Br)c(F)cc2n1C [Example 26, N-[(1R,2R)-1-(5-bromo-6-fluoro-1-methyl-1H-1,3-benzodiazol-2-yl)-2-methoxypropyl]-5-methylpyrazine-2-carboxamide]",7

# More lines, now with the values ahead:
row,IC50 [nM],Compound
1,4,"CCn1c([C@@H](NC(=O)c2cnc(C)cn2)C2CC2)nc2cc(F)ccc21 [Example 1, N-[(S)-cyclopropyl(1-ethyl-5-fluoro-1H-1,3-benzodiazol-2-yl)methyl]-5-methylpyrazine-2-carboxamide]"
2,3,"CCn1c([C@@H](NC(=O)c2cnc(C(F)F)cn2)C2CC2)nc2cc(F)ccc21 [Example 3, N-[(S)-cyclopropyl(1-ethyl-5-fluoro-1H-1,3-benzodiazol-2-yl)methyl]-5-(difluoromethyl)pyrazine-2-carboxamide]"
3,4,"O=C(N[C@H](c1nc2cc(F)ccc2n1CC(F)F)C1CC1)c1cnc(C(F)F)cn1 [Example 4, N-[(S)-cyclopropyl[1-(2,2-difluoroethyl)-5-fluoro-1H-1,3-benzodiazol-2-yl]methyl]-5-(difluoromethyl)pyrazine-2-carboxamide]"
4,5,"COCCn1c([C@@H](NC(=O)c2cnc(C(F)F)cn2)C2CC2)nc2cc(F)ccc21 [Example 5, N-[(S)-cyclopropyl[5-fluoro-1-(2-methoxyethyl)-1H-1,3-benzodiazol-2-yl]methyl]-5-(difluoromethyl)pyrazine-2-carboxamide]"
5,7,"COCCn1c([C@@H](NC(=O)c2cnc(C)cn2)C2CC2)nc2cc(F)ccc21 [Example 6, N-[(S)-cyclopropyl[5-fluoro-1-(2-methoxyethyl)-1H-1,3-benzodiazol-2-yl]methyl]-5-methylpyrazine-2-carboxamide]"
6,4,"Cc1cnc(C(=O)N[C@H](c2nc3cc(F)ccc3n2C(C)C)C2CC2)cn1 [Example 7, N-[(S)-cyclopropyl[5-fluoro-1-(propan-2-yl)-1H-1,3-benzodiazol-2-yl]methyl]-5-methylpyrazine-2-carboxamide]"
7,3,"COCCn1c([C@@H](NC(=O)c2cnc(C)cn2)C2CC2)nc2cc(Cl)ccc21 [Example 8, N-[(S)-[5-chloro-1-(2-methoxyethyl)-1H-1,3-benzodiazol-2-yl](cyclopropyl)methyl]-5-methylpyrazine-2-carboxamide]"
8,4,"Cc1cnc(C(=O)N[C@H](c2nc3c(F)c(C)ccc3n2CC(F)F)C2CC2)cn1 [Example 9, N-[(S)-cyclopropyl[1-(2,2-difluoroethyl)-4-fluoro-5-methyl-1H-1,3-benzodiazol-2-yl]methyl]-5-methylpyrazine-2-carboxamide]"
9,5,"Cc1cnc(C(=O)N[C@H](c2nc3cc(F)ccc3n2CC(F)F)C2CC2)cn1 [Example 10, N-[(S)-cyclopropyl[1-(2,2-difluoroethyl)-5-fluoro-1H-1,3-benzodiazol-2-yl]methyl]-5-methylpyrazine-2-carboxamide]"
10,2,"COCCn1c([C@@H](NC(=O)c2cnc(C)cn2)C2CC2)nc2cc(OC(F)(F)F)ccc21 [Example 12, N-[(S)-cyclopropyl[1-(2-methoxyethyl)-5-(trifluoromethoxy)-1H-1,3-benzodiazol-2-yl]methyl]-5-methylpyrazine-2-carboxamide]"
11,7,"COCCn1c([C@@H](NC(=O)c2cnc(C)cn2)C2CC2)nc2cc(OC(F)F)ccc21 [Example 13, N-[(S)-cyclopropyl[5-(difluoromethoxy)-1-(2-methoxyethyl)-1H-1,3-benzodiazol-2-yl]methyl]-5-methylpyrazine-2-carboxamide]"
12,3,"Cc1cnc(C(=O)N[C@H](c2nc3cc(C)c(F)cc3n2CC(F)F)C2CC2)cn1 [Example 15, N-[(S)-cyclopropyl[1-(2,2-difluoroethyl)-6-fluoro-5-methyl-1H-1,3-benzodiazol-2-yl]methyl]-5-methylpyrazine-2-carboxamide]"
13,7,"COCCn1c([C@H](CC2CC2)NC(=O)c2cnc(C)cn2)nc2cc(F)ccc21 [Example 24, N-[(1S)-2-cyclopropyl-1-[5-fluoro-1-(2-methoxyethyl)-1H-1,3-benzodiazol-2-yl]ethyl]-5-methylpyrazine-2-carboxamide]"
14,3,"CCn1c([C@@H](NC(=O)c2cnc(C)cn2)C2CC2)nc2cc(Cl)ccc21 [Example 25, N-[(S)-(5-chloro-1-ethyl-1H-1,3-benzodiazol-2-yl)(cyclopropyl)methyl]-5-methylpyrazine-2-carboxamide]"
